Data as given in patent US20250019665A1, “SCALABLE BIOMANUFACTURING OF TUMOR ORGANOIDS” (The Board of Trustees of The University of Alabama, priority 2023, published 2025).

Key:
GBO (U251) = experiment: Live and dead cell staining of GBO; assay type: cell-based; details: GBO in bioreactor, live and dead cells stained
Text: Live and Dead Cell Analysis: Cells were stained with Live and Dead Cell Kit according to manufacturer's protocol (Abcam, ab115347). Sample images were acquired and analyzed using Nikon C2 Laser Scanning Confocal Microscope.

[1] = system: SOX2 and CD44 expression in GBO; experiment: IHC of GSC markers SOX2 and CD44 in GBO, fluorescence intensity by CTCF; assay type: cell-based; details: GBO with vs without ROCKi
Method: To further examine whether ROCKi maintained GSC stemness, the expression of GSC markers, SOX2 and CD44, were analyzed (FIG. 6B).
where A is the two-dimensional projected area, and p is perimeter. Images were acquired with 12-bit depth, and the raw files were analyzed using NIS-Elements Viewer (Nikon) and ImageJ (NIH). Fluorescence intensity was calculated by the corrected total cell fluorescence (CTCF).
Immunohistochemistry (IHC): GBOs were fixed using 4% paraformaldehyde (Alfa Acsar, J61899AK) overnight and dehydrated using ethanol followed by xylene. Dehydrated GBOs were embedded in paraffin. Paraffin-embedded GBOs were sectioned to 5 to 10 μm thickness. Deparaffinization was done by xylene followed by ethanol. Sectioned GBOs were rehydrated with water. 10 mM sodium citrate buffer with […] was formulated for antigen retrieval and adjusted to pH 6.0. Antigen retrieval was performed at 95° C. for ten minutes. Sectioned GBOs were stained with primary antibodies: CD133, SOX2, CD44, NOTCH1, DLL1, HIF-1α, CD31, CD34, CD144, CD146, α-SMA, NG2, GFAP, Map2, S100B, VEGFR, ZO1, and POU3f2, followed by secondary staining. Cell nuclei were counter stained by Hoechst 33342 (Invitrogen, H1399). Stained GBOs were mounted using ProLong Glass Antifade Mountant with NucBlue (Invitrogen, P36981) and imaged by Nikon C2 Laser Scanning Confocal Microscope.

U251 = U251 inoculated as single cells, BR2 bioreactor, 60 and 120 rpm, 5 days of culture, with vs without ROCKi
Method: Next, the effects of Rho-associated protein kinase inhibitor (ROCKi) Y-27632 on different bioreactor culture conditions were tested. […] To verify the effects, U251 was inoculated as single cells with or without ROCKi. […] To test whether low cell proliferation is a result of apoptosis, live and dead cells were stained.

C[C@@H](N)[C@H]1CC[C@H](C(=O)Nc2ccncc2)CC1 [ROCKi, Y-27632]
apoptosis (GBO (U251)): did not induce apoptosis
expression levels of GSC markers SOX2 and CD44 [1]: not significantly different
cell proliferation (U251): inhibited cell proliferation
